Several values for one entry are separate records, joined by “and”; a condition that tells them apart may be missing. Equal entries are not always repeated. Where two headings read alike, the source gives them in different places. Where a SMILES comes first, the peptide text is derived from it. [ ]: non-standard residue; d: D form. The star is where a group is joined. DOTA = O=C(O)CN1CCN(CC(=O)O)CCN(CC(=O)*)CCN(CC(=O)O)CC1; 1Nal = N[C@@H](Cc1cccc2ccccc12)C(=O)O; NMeNle = CCCC[C@H](NC)C(=O)O
Tests used:
[1] = Protein binding in human serum by size exclusion chromatography; format: in vitro ADME; details: 24 h incubation
Protocol: For protein binding assessment, the radiolabeled DOTA-peptides were incubated in fresh human serum at 37 °C (500 pmol/mL, n = 2). After 1, 4 and 24 h of incubation, two samples were taken for each time point and analyzed by Sephadex G-50 size-exclusion chromatography (GE Healthcare Illustra, Little Chalfont, UK). The percentage of protein binding was determined by measuring the column and the eluate with the gamma-counter.

[2] = Biodistribution in BALB/c mice; format: in vivo; details: for tissue uptake at 0.5 h / tissue uptake at 1 h / tissue uptake at 10 min: female, BALB/c, mouse, iv, total radioactivity; for tissue uptake at 0.5 h: 30 min p.i.; for tissue uptake at 1 h: 1 h p.i.
Protocol: Metabolic biodistribution studies were performed in accordance with the ethical standards of the institution and approved by the Austrian Ministry of Science (BMWFW-66.011/0072-V/3b/2019). These studies were carried out in 5- to 7-week-old female BALB/c mice (n = 3) injected with [^177Lu]Lu-1 via a lateral tail vein. To allow monitoring of the metabolites by radio-HPLC, mice were injected with 30 MBq corresponding to 0.8 nmol total peptide. The mice were euthanized by cervical dislocation after different time points of 10 min, 30 min and 1 h p.i. and the urine and a venous blood sample were collected at the time of sacrifice. Liver and kidneys were dissected and homogenized in 20 mM HEPES buffer pH 7.3 at a ratio of 1:1 (v/v) with an Ultra-Turrax T8 homogenizer (IKA-Werke, Staufen, Germany) for 1 min at RT. Before radio-HPLC analysis, the samples (except urine) were treated with ACN at a ratio of 1:1 (v/v) to precipitate proteins, centrifuged at 2000× g for 2 min and diluted with water at a ratio of 1:1 (v/v). For HPLC analysis of the samples, the analytical HPLC system described above with a flow rate of 1 mL/min was used together with the following optimized water/ACN/0.1% TFA gradient to allow a better separation of [^177Lu]Lu-1 and the different radiometabolites: 0–7 min 1–7% ACN, 7–8 min 7–10% ACN, 8–18 min 10–18% ACN, 18–20 min 18–32% ACN, 20–27 min 32% ACN, 27–37 min […], 37–40 min 80% ACN, 40–40.1 min 80–1% ACN, 40.1–45 min 1% ACN. Urine was measured with the low-sensitivity loop of the radiodetector. The remaining samples were analyzed with the high-sensitivity loop due to the lower radioactivity present in blood, liver and kidney homogenate. To quantify the percentage of intact [^177Lu]Lu-1 and [^177Lu]Lu-M1 showing some overlap in the radiochromatogram when using the high-sensitivity loop of the radiodetector, the two radiopeptides were co-injected at different known ratios to enable a more accurate separation and integration of the two peaks (see supporting Figure S4). Mice from the metabolic biodistribution studies were subjected to a further dissection of all remaining tissues (blood, lung, heart, femur, spleen, muscle, intestine, pancreas and stomach). All organs, also including liver and kidneys, were weighed, and their radioactivity was measured in the gamma counter together with a standard and the residual body. To quantify the uptake of radioactivity in liver and kidneys, a part of liver and kidney homogenate was measured in the gamma counter to extrapolate the radioactivity for the whole organ.

[3] = Stability in rat kidney homogenate; format: in vitro ADME
Protocol: (§1) In vitro stability studies for the characterization of the metabolic stability of the radiolabeled peptide analogs in human serum were carried out with [^177Lu]Lu-1, [^177Lu]Lu-M1, [^177Lu]Lu-M2, [^177Lu]Lu-M3 and [^177Lu]Lu-M4 (n = 2). Additional stability studies in rat liver and kidney homogenates were performed for [^177Lu]Lu-1 (n = 2). Tissue homogenates were prepared from dissected organs by homogenization for 1 min at RT (IKA-Werke, Staufen, Germany) in 20 mM HEPES buffer pH 7.3 (30% v/v). The radioligands were incubated in the different media at a concentration of 500 pmol/mL (corresponding to an activity of 6–11 MBq). After incubation at 37 °C at different time points for up to 24 h, a 100 µl sample was taken in duplicates and analyzed by HPLC. Samples obtained from human serum and rat homogenates were treated with ACN at a ratio of 1:1.5 (v/v) to precipitate proteins, centrifuged (14,000 rpm, 2 min, centrifuge 5424, Eppendorf AG, Germany) and diluted with water at a ratio of 1:1 (v/v). A 100 µl aliquot of this solution was injected into the radio HPLC system. The degradation of the radioligand was evaluated based on the radiochemical purity after radiolabeling and the percentage of intact radiopeptide observed during incubation in the different media.

[4] = Stability in fresh human serum (radio-HPLC); format: in vitro ADME; details: 24 h incubation, 37 °C
Protocol: as §1

[5] = Stability in rat liver homogenate; format: in vitro ADME
Protocol: as §1

[6] = Distribution coefficient (logD) in octanol/PBS; format: physicochemical; details: octanol/PBS pH 7.4; read-out: logD
Protocol: The mixture was vigorously vortexed at room temperature over a period of 15 min using a small shaker (MS3 Basic, IKA, Staufen, Germany) with speed of 1500 rpm.

[7] = blood, 30 MBq, read-out: uptake in blood
[8] = femur, 30 MBq, read-out: uptake in femur
[9] = heart, 30 MBq, read-out: uptake in heart
[10] = intestine, 30 MBq, read-out: uptake in intestine
[11] = kidneys, 30 MBq, read-out: uptake in kidneys
[12] = liver, 30 MBq, read-out: uptake in liver
[13] = lung, 30 MBq, read-out: uptake in lung
[14] = muscle, 30 MBq, read-out: uptake in muscle
[15] = pancreas, 30 MBq, read-out: uptake in pancreas
[16] = spleen, 30 MBq, read-out: uptake in spleen
[17] = stomach, 30 MBq, read-out: uptake in stomach

- fraction unbound [1]: 0.622
- whole body activity ([2]; 10 min p.i.): 61.78 % IA
- whole body activity ([2]; 1 h after injection): 12.27 % IA
- tissue uptake at 0.5 h [2, 7]: 5.08 %ID/g
- tissue uptake at 1 h [2, 7]: 2.05 %ID/g
- tissue uptake at 10 min ([2]; blood, 10 min p.i., 30–40 MBq, 0.8 nmol, read-out: uptake in blood): 17.8 %ID/g
- tissue uptake at 10 min ([2]; femur, 30 MBq, 10 min p.i., read-out: uptake in femur): 5.97 %ID/g
- tissue uptake at 0.5 h [2, 8]: 1.28 %ID/g
- tissue uptake at 1 h [2, 8]: 0.52 %ID/g
- tissue uptake at 10 min ([2]; heart, 30 MBq, 10 min p.i., read-out: uptake in heart): 7.13 %ID/g
- tissue uptake at 0.5 h [2, 9]: 2.72 %ID/g
- tissue uptake at 1 h [2, 9]: 0.99 %ID/g
- tissue uptake at 10 min ([2]; intestine, 30 MBq, 10 min p.i., read-out: uptake in intestine): 2.63 %ID/g
- tissue uptake at 0.5 h [2, 10]: 1.61 %ID/g
- tissue uptake at 1 h [2, 10]: 1.02 %ID/g
- tissue uptake at 10 min ([2]; kidneys, 30 MBq, 10 min p.i., read-out: uptake in kidneys): 14.5 %ID/g
- tissue uptake at 0.5 h [2, 11]: 10.8 %ID/g
- tissue uptake at 1 h [2, 11]: 7.01 %ID/g
- tissue uptake at 10 min ([2]; liver, 30 MBq, 10 min p.i., read-out: uptake in liver): 5.37 %ID/g
- tissue uptake at 0.5 h [2, 12]: 2.95 %ID/g
- tissue uptake at 1 h [2, 12]: 1.26 %ID/g
- tissue uptake at 10 min ([2]; lung, 30 MBq, 10 min p.i., read-out: uptake in lung): 17.4 %ID/g
- tissue uptake at 0.5 h [2, 13]: 5.03 %ID/g
- tissue uptake at 1 h [2, 13]: 1.95 %ID/g
- tissue uptake at 10 min ([2]; muscle, 30 MBq, 10 min p.i., read-out: uptake in muscle): 2.56 %ID/g
- tissue uptake at 0.5 h [2, 14]: 1.03 %ID/g
- tissue uptake at 1 h [2, 14]: 0.36 %ID/g
- tissue uptake at 10 min ([2]; pancreas, 30 MBq, 10 min p.i., read-out: uptake in pancreas): 3.39 %ID/g
- tissue uptake at 0.5 h [2, 15]: 1.76 %ID/g
- tissue uptake at 1 h [2, 15]: 0.84 %ID/g
- tissue uptake at 10 min ([2]; spleen, 30 MBq, 10 min p.i., read-out: uptake in spleen): 3.7 %ID/g
- tissue uptake at 0.5 h [2, 16]: 2 %ID/g
- tissue uptake at 1 h [2, 16]: 0.79 %ID/g
- tissue uptake at 10 min ([2]; stomach, 30 MBq, 10 min p.i., read-out: uptake in stomach): 3.36 %ID/g
- tissue uptake at 0.5 h [2, 17]: 2.29 %ID/g
- tissue uptake at 1 h [2, 17]: 1.39 %ID/g
- washout at 1 h versus 10 min p.i. ([2]; non-excretory organs (blood, lung, heart, femur, spleen and muscle)): 79–91%
- percentage decrease of radioactivity at 1 h versus 10 min p.i. ([2]; pancreas): 75%
- percentage decrease of radioactivity at 1 h versus 10 min p.i. ([2]; stomach): 59%
- intact radiopeptide ([3]; 20 min): 65.6 ± 2.8%
- intact radiopeptide ([3]; 30 min): 43.9 ± 1.0% and 44%
- intact radiopeptide ([3]; 2 h): < 5%
- intact radiopeptide ([3]; 24 h): < 1%
- intact radiopeptide [4]: 96.2 ± 1.3%
- intact radiopeptide ([5]; 30 min): 83.6 ± 0.2% and 84%
- intact radiopeptide ([5]; 2 h): 52.9 ± 2.0% and > 50%
- intact radiopeptide ([5]; 24 h): 49.3 ± 1.7%
- intact radiopeptide ([5]; up to 20 min incubation): > 90%
- logD [6]: -1.96 ± 0.07
Compound: CCCC[C@@H](C(=O)N[C@@H](CC(=O)O)C(=O)N[C@@H](Cc1cccc2ccccc12)C(N)=O)N(C)C(=O)[C@H](Cc1c[nH]c2ccccc12)NC(=O)CNC(=O)[C@H](Cc1ccc(O)cc1)NC(=O)[C@@H]1CCCN1C(=O)[C@@H](CCC(=O)O)NC(=O)CN1CCN(CC(=O)O)CCN(CC(=O)O)CCN(CC(=O)O)CC1 [[^177Lu]Lu-1, metal not drawn] ({DOTA}-[dE]PYGW[NMeNle]D[1Nal]-NH2)
